Laboratory results: US20240148675A1, “TOPICAL COMPOSITIONS AND METHODS FOR TREATMENT” (Atossa Therapeutics, Inc., priority 2017, published 2024)

Experiments:
[1] = aqueous medium, 45° C., day 15, starting from 98%; cited from earlier work
[2] = Solubility of (Z) and (E)-endoxifen in polar organic solvents (HPLC-UV); type: physicochemical
Description: (Z)-endoxifen free base was synthesized as described above in Example 1. (Z)-endoxifen was solubilized in various solvents as provided in Table 1, and tested for physical and chemical stability in solution. The solutions were prepared in ˜1 ml batches typically for solubility and stability testing. The mixture was stirred overnight on a rotisserie at room temperature. The next, […], the suspension was filtered using a syringe filter (0.2 um pore size GHP membrane). The filtrated solution was then analyzed for the concentration of (Z)-endoxifen and (E)-endoxifen as using a validated HPLC-UV method as described below.
(§1) HPLC-UV. Briefly, (E)- and (Z)-endoxifen were analyzed by High Performance Liquid Chromatography, HPLC (instrument: Agilent 1100) using a UV detector (Agilent). Chromatographic resolution was obtained using a Luna Phenyl Hexyl Column ([…]×150 mm) at a column temperature of 40° C. Samples were injected in an injection volume of 10 ul and run at a flow rate of 1.0 ml/min. The mobile phase system used consisted of: A) water with 10 mM ammonium formate (HCOONH4) with 0.03% formic acid and B) Methanol with 10 mM ammonium formate (HCOONH4).
UV detection of (E)-endoxifen and (Z)-endoxifen isomers was performed at 243 nm with a run time of 30 minutes. Retention times for (E)-endoxifen and (Z)-endoxifen were 15.14 m and 16.25 m respectively. […]

[3] = Stability of endoxifen free base in polar organic solvents in the absence and presence of skin; type: physicochemical; conditions: for potency and stability in the solvents in the presence of skin: compared with potency in absence of skin after 2 days; for % Potency: relative to initiation of study
Description: as §1
The stability studies of endoxifen free base in various pure polar organic solvents/MPEs were performed as described below. Accelerated stability studies of (Z)-endoxifen free base in solvents/MPEs were performed over a course of 2 days at 45° C. in both the presence and the absence of human cadaver skin to assess the degree to which the (Z)-endoxifen conversion to (E)-endoxifen by isomerization and or chemical degradation of the endoxifen is accelerated upon contact with skin and skin components. (Z)-Endoxifen solutions at ˜80% of saturation concentrations were prepared in 1 ml batches in solvents as listed below in the Table 3. The potencies of (Z)-endoxifen and (E)-endoxifen were determined by HPLC-UV analysis as described above. Potency results are shown compared with potencies measured when the sample were stored at the initiation of stability study.

[4] = in Diethyl Sebacate, 45° C. + skin (human cadaver), 2 days
[5] = in Diethylene glycol monoethyl ether, 45° C. + skin (human cadaver), 2 days
[6] = in Dimethyl Isosorbide, 45° C. + skin (human cadaver), 2 days
[7] = in Dipropylene Glycol, 45° C. + skin (human cadaver), 2 days
[8] = in Isopropyl Myristate, 45° C. + skin (human cadaver), 2 days
[9] = in PEG 300, 45° C. + skin (human cadaver), 2 days

| stability of (Z)-endoxifen in polar organic solvents ([2]; polar organic solvents of Table 1) | potency and stability in the solvents in the presence of skin ([3]; 45° C.) | % Potency [3, 4] [%] | % Potency [3, 5] [%] | % Potency ([3]; in Diisopropyl Adipate, 45° C. + skin (human cadaver), 2 days) [%] | % Potency [3, 6] [%] | % Potency [3, 7] [%] | % Potency [3, 8] [%] | % Potency [3, 9] [%] | solubility in polar organic solvents/MPEs ([2]; DMSO, ethanol, diethylene monoethyl ether, and oleic acid) | stability of dissolved endoxifen ([3]; dissolved in dimethyl isosorbide and isopropyl myristate, 2 days, 45° C.) | Compound | (Z)-endoxifen remaining after degradation [1] [%] |
| --- | --- | --- | --- | --- | --- | --- | --- | --- | --- | --- | --- | --- |
| – | – | – | – | – | – | – | – | – | – | – | CC/C(=C(\c1ccc(O)cc1)c1ccc(OCCNC)cc1)c1ccccc1.Cl [(Z)-endoxifen HCl] | 75 |
| surprisingly stable | maintained potency and stability | 94 | 98 | 99 | 17 | 94 | 63 | 92 | – | – | CC/C(=C(\c1ccc(O)cc1)c1ccc(OCCNC)cc1)c1ccccc1 [(Z)-endoxifen free base, (Z)-4-(1-(4-(2-(methylamino)ethoxy)phenyl)-2-phenylbut-1-enyl)phenol] | – |
| – | maintained potency and stability | 99 | 98 | – | 16 | 95 | 68 | 92 | – | – | CC/C(=C(/c1ccc(O)cc1)c1ccc(OCCNC)cc1)c1ccccc1 [(E)-endoxifen free base] | – |
| – | – | – | – | – | – | – | – | – | significantly soluble | poor stability | CC/C(=C(\c1ccc(O)cc1)c1ccc(OCCNC)cc1)c1ccccc1 [Total Endoxifen free base, (E/Z)-4-[1-[4-[2-(Methylamino)ethoxy]phenyl]-2-phenyl-1-buten-1-yl]-phenol] | – |
